# Patent publication US9078890B2, “Use of koumine and its homologues in preparation of medicament for treatment of autoimmune diseases of involved bones and joints” (priority 2011, dated 2015)
# Marks after values point to notes of the source that are not given here.
# Key:
# [1] = test system: type II collagen-induced arthritis rat; experiment: Type II collagen-induced arthritis rat: thermal hyperalgesia (thermal withdrawal latency); format: in vivo, Wistar rat; details: for Thermal stimulus withdrawal latency, Intervention Day 2: intervention Day 2, 1 hour after administration; for Thermal stimulus withdrawal latency, Intervention Day 4: intervention Day 4, 1 hour after administration; for Thermal stimulus withdrawal latency, Intervention Day 6: intervention Day 6, 1 hour after administration; for Thermal stimulus withdrawal latency, Intervention Day 8: intervention Day 8, 1 hour after administration; for Thermal stimulus withdrawal latency, Intervention Day 10: intervention Day 10, 1 hour after administration
# Description: (§1) Under aseptic conditions, 10 mg chicken type II collagen protein was fully mixed with 5 ml 10 mM glacial acetic acid solution, and stirred overnight in refrigerator at 4° C. to fully dissolve it. It was mixed with complete Freund's adjuvant in equal volume in ice bath to fully emulsify into an emulsion with a collagen concentration of 1 mg/ml.
# (§2) Wistar rats are divided into a modeling group and a false modeling group. After the modeling group rats were narcotized with intraperitoneal injection of pentobarbital, the above emulsion was injected intracutaneously at 3 to 4 positions at back, tail root or the like, 0.3 ml for each, an primary immunity was carried out. After 7 days, a secondary immunity was carried out, the emulsifying agent complete Freund's adjuvant of initial immunity was replaced with incomplete Freund's adjuvant, 0.1 ml the emulsion was injected under sevoflurane inhalation anesthesia wherein the injection position is different from the last time. In false modeling group, the emulsion was replaced with solvent glacial acetic acid solution.
# (§3) Successfully modeled rat in the modeling group were randomly divide into 5 groups: low, middle, high-dose koumine treatment group, positive control group, negative control group, 10 rats for each group. Beginning from Day 21 after modeling, corresponding intervention was carried out as following in 10 days continuously: 0.6, 3, 15 mg/kg koumine were intragastrically administrated to the low, middle, high-dose koumine treatment group respectively, 1 time every day; 1 mg/kg amethopterin was administrated to the positive control group, 1 time every 3 days, equal volume of physiological saline was administrated for the remained days; equal volume of physiological saline was administrated to the negative control group.
# 1 hour after intragastric administration, the thermal withdrawal latency of each group was determined by the photo-thermal dolorimeter; the mechanical pain threshold of rats of each group was determined by Von-frey electromechanical pain threshold detector, thus the condition of thermal hyperalgesia and mechanical hyperalgesia of rats of each group was observed.
# [2] = test system: type II collagen-induced arthritis rat; experiment: Type II collagen-induced arthritis rat: condition and body weight; format: in vivo, Wistar rat; details: for Body weight before intervention: from Day 21 after modeling for 10 days
# Description: as §1, §2, §3
# adjuvant arthritis mice [3] = experiment: Adjuvant arthritis mice: phlogogenic paw swelling (paw thickness); format: in vivo, Kunming mice; details: koumine 0.8, 4, 20 mg/kg intragastric once daily; Day 4-18 after inflammation
# Description: BCG was inactivated in water bath at 80° C., and fully emulsified along with complete Freund's adjuvant to form complete Freund's adjuvant emulsion containing 5 mg/ml BCG, preserved at 4° C., and shake well before use. The Kunming mice were divided into a modeling group and a false modeling group. According to the method recited in the literature [Rasool M, Sabina E P, Lavanya B. Anti-inflammatory effect of Spirulina fusiformis on adjuvant-induced arthritis in mice. Biol Pharm Bull. 2006, 29(12):2483-7], for the modeling group, the model was prepared by intradermal injection of 20 ul the emulsion under the plantar surface of right paws after the mice was narcotized; for the false modeling group, the emulsion was replaced with physiological saline. For the modeling group, the animals were screened on Day 8 after injection: the mice with the injected paw thickness increased >0.5 mm and thermal hyperalgesia occurred (paw thermal withdrawal latency <8 second) were selected as experimental subjects. […]
# According to Methodology of Pharmacological Experiment (Shuyun Xu, Rulian Bian: Methodology of Pharmacological Experiment [M], 3rd Ed., People's Medical Publishing House: 912-913), paw thickness was selected as a paw swelling index and was measured using vernier caliper, measuring timing is the same as above, each measurement repeats 3 times and the average was taken (similarly hereinafter).
# adjuvant arthritis mice [4] = experiment: Adjuvant arthritis mice: hyperalgesia (phlogogenic paw thermal withdrawal latency); format: in vivo, Kunming mice
# Description: BCG was inactivated in water bath at 80° C., and fully emulsified along with complete Freund's adjuvant to form complete Freund's adjuvant emulsion containing 5 mg/ml BCG, preserved at 4° C., and shake well before use. The Kunming mice were divided into a modeling group and a false modeling group. According to the method recited in the literature [Rasool M, Sabina E P, Lavanya B. Anti-inflammatory effect of Spirulina fusiformis on adjuvant-induced arthritis in mice. Biol Pharm Bull. 2006, 29(12):2483-7], for the modeling group, the model was prepared by intradermal injection of 20 ul the emulsion under the plantar surface of right paws after the mice was narcotized; for the false modeling group, the emulsion was replaced with physiological saline. For the modeling group, the animals were screened on Day 8 after injection: the mice with the injected paw thickness increased >0.5 mm and thermal hyperalgesia occurred (paw thermal withdrawal latency <8 second) were selected as experimental subjects. The selected mice were divided into 5 groups randomly: low, middle, high dose treatment group (0.8, 4, 20 mg/kg); indomethacin positive control group (10 mg/kg); negative control group (physiological saline), each comprising 12 animals. Day 8 after inflammation, intragastric administration was carried out on each group to give corresponding intervention, one time per day for 10 days continuously.
# 30 min after intragastric administration, the phlogogenic paw thermal withdrawal latency of the mice in each group was determined by photo-thermal dolorimeter to reflect animals' hyperalgesia status.
# [5] = koumine 0.6 mg/kg intragastric once daily
# [6] = koumine 3 mg/kg intragastric once daily
# [7] = koumine 15 mg/kg intragastric once daily
# [8] = koumine 0.6 mg/kg intragastric once daily from Day 21
# [9] = koumine 3 mg/kg intragastric once daily from Day 21
# [10] = koumine 15 mg/kg intragastric once daily from Day 21
# [11] = koumine 0.8 mg/kg intragastric once daily from Day 8
# [12] = koumine 4 mg/kg intragastric once daily from Day 8
# [13] = koumine 20 mg/kg intragastric once daily from Day 8
smiles,measurement,setting,value
C=CC12CN(C)C3CC14C(=Nc1ccccc14)C1CC2C3CO1 (centres unmarked) [Koumine],"Thermal stimulus withdrawal latency, Before intervention",[1]; [5],7.50 ± 1.34 s
same,"Thermal stimulus withdrawal latency, Intervention Day 2",[1]; [5],7.81 ± 1.39 s
same,"Thermal stimulus withdrawal latency, Intervention Day 4",[1]; [5],8.42 ± 1.24 s
same,"Thermal stimulus withdrawal latency, Intervention Day 6",[1]; [5],10.30 ± 0.73**^★ second
same,"Thermal stimulus withdrawal latency, Intervention Day 8",[1]; [5],8.96 ± 0.81 s
same,"Thermal stimulus withdrawal latency, Intervention Day 10",[1]; [5],8.62 ± 2.21 s
same,"Thermal stimulus withdrawal latency, Before intervention",[1]; [6],8.03 ± 1.98 s
same,"Thermal stimulus withdrawal latency, Intervention Day 2",[1]; [6],8.07 ± 1.86 s
same,"Thermal stimulus withdrawal latency, Intervention Day 4",[1]; [6],9.16 ± 1.18 s
same,"Thermal stimulus withdrawal latency, Intervention Day 6",[1]; [6],11.18 ± 2.03**^★ second
same,"Thermal stimulus withdrawal latency, Intervention Day 8",[1]; [6],10.40 ± 1.74 s
same,"Thermal stimulus withdrawal latency, Intervention Day 10",[1]; [6],11.62 ± 1.21**^★ second
same,"Thermal stimulus withdrawal latency, Before intervention",[1]; [7],7.68 ± 2.48 s
same,"Thermal stimulus withdrawal latency, Intervention Day 2",[1]; [7],9.41 ± 0.68 s
same,"Thermal stimulus withdrawal latency, Intervention Day 4",[1]; [7],10.82 ± 1.07 s
same,"Thermal stimulus withdrawal latency, Intervention Day 6",[1]; [7],12.98 ± 1.13**^★ second
same,"Thermal stimulus withdrawal latency, Intervention Day 8",[1]; [7],13.44 ± 1.72 s
same,"Thermal stimulus withdrawal latency, Intervention Day 10",[1]; [7],13.87 ± 1.26**^★ second
same,Effect on thermal stimulus withdrawal latency (summary of Table 3),"[1]; koumine 0.6, 3, 15 mg/kg intragastric, dose-effect relationship",can significantly extend the thermal stimulus withdrawal latency
same,"Body weight after intervention, Day 7",[2]; [8],154.6 ± 7.20 g
same,"Body weight after intervention, Day 14",[2]; [8],173.1 ± 7.93 g
same,"Body weight after intervention, Day 21",[2]; [8],194.1 ± 16.67 g
same,"Body weight after intervention, Day 31",[2]; [8],235.8 ± 5.00 g
same,Body weight before intervention,[2]; [5],129.9 ± 8.60 g
same,"Body weight after intervention, Day 7",[2]; [9],145.1 ± 9.24 g
same,"Body weight after intervention, Day 14",[2]; [9],173.7 ± 4.84 g
same,"Body weight after intervention, Day 21",[2]; [9],202.3 ± 9.57 g
same,"Body weight after intervention, Day 31",[2]; [9],240.2 ± 6.85 g
same,Body weight before intervention,[2]; [6],126.5 ± 7.92 g
same,"Body weight after intervention, Day 7",[2]; [10],148.7 ± 8.73 g
same,"Body weight after intervention, Day 14",[2]; [10],176.9 ± 3.86 g
same,"Body weight after intervention, Day 21",[2]; [10],205.1 ± 6.94 g
same,"Body weight after intervention, Day 31",[2]; [10],260.3 ± 11.79 g
same,Body weight before intervention,[2]; [7],127.8 ± 7.45 g
same,"Condition of rats (food intake, activity, fur, emaciation)","[2]; koumine 0.6, 3, 15 mg/kg intragastric once daily",can be improved in a dose dependent manner
same,Effect on body weight of type II collagen-induced arthritis rats (summary of Table 2),"[2]; koumine 0.6, 3, 15 mg/kg intragastric, robustness-promoting effect on high-dose group",antagonistic effect on body weight reducing
same,Effect on phlogogenic paw thickness (FIG. 2),adjuvant arthritis mice [3],reduces the phlogogenic paw thickness of adjuvant arthritis mice in dose and time-dependent manner
same,"Thermal stimulus withdrawal latency, Before intervention",adjuvant arthritis mice [4]; koumine 0.8 mg/kg intragastric once daily for 10 days from Day 8 after inflammation,14.1 ± 1.1 s
same,"Thermal stimulus withdrawal latency, Intervention Day 4",adjuvant arthritis mice [4]; [11],5.9 ± 1.3^★★ second
same,"Thermal stimulus withdrawal latency, Intervention Day 8",adjuvant arthritis mice [4]; [11],4.9 ± 1.1^★★ second
same,"Thermal stimulus withdrawal latency, Intervention Day 12",adjuvant arthritis mice [4]; [11],4.9 ± 1.0*^★ second
same,"Thermal stimulus withdrawal latency, Intervention Day 16",adjuvant arthritis mice [4]; [11],5.9 ± 1.0**^★ second
same,"Thermal stimulus withdrawal latency, Intervention Day 18",adjuvant arthritis mice [4]; [11],6.1 ± 1.2**^★★ second
same,"Thermal stimulus withdrawal latency, Before intervention",adjuvant arthritis mice [4]; koumine 4 mg/kg intragastric once daily for 10 days from Day 8 after inflammation,13.6 ± 1.1 s
same,"Thermal stimulus withdrawal latency, Intervention Day 4",adjuvant arthritis mice [4]; [12],5.8 ± 1.5^★★ second
same,"Thermal stimulus withdrawal latency, Intervention Day 8",adjuvant arthritis mice [4]; [12],4.3 ± 0.8 s
same,"Thermal stimulus withdrawal latency, Intervention Day 12",adjuvant arthritis mice [4]; [12],6.7 ± 1.9**^★ second
same,"Thermal stimulus withdrawal latency, Intervention Day 16",adjuvant arthritis mice [4]; [12],7.8 ± 1.9**^★ second
same,"Thermal stimulus withdrawal latency, Intervention Day 18",adjuvant arthritis mice [4]; [12],8.4 ± 1.8**^★★ second
same,"Thermal stimulus withdrawal latency, Before intervention",adjuvant arthritis mice [4]; koumine 20 mg/kg intragastric once daily for 10 days from Day 8 after inflammation,13.9 ± 1.1 s
same,"Thermal stimulus withdrawal latency, Intervention Day 4",adjuvant arthritis mice [4]; [13],6.1 ± 1.4^★★ second
same,"Thermal stimulus withdrawal latency, Intervention Day 8",adjuvant arthritis mice [4]; [13],4.7 ± 1.5^★★ second
same,"Thermal stimulus withdrawal latency, Intervention Day 12",adjuvant arthritis mice [4]; [13],9.2 ± 1.2**^★ second
same,"Thermal stimulus withdrawal latency, Intervention Day 16",adjuvant arthritis mice [4]; [13],10.7 ± 1.2**^★★ second
same,"Thermal stimulus withdrawal latency, Intervention Day 18",adjuvant arthritis mice [4]; [13],10.8 ± 1.1**^★★ second
same,Effect on thermal stimulus withdrawal latency (summary of Table 1),"adjuvant arthritis mice [4]; koumine 0.8, 4, 20 mg/kg intragastric, dose-effect and time-effect relationships",can significantly extend the thermal stimulus withdrawal latency
